Experimental data reported in PubChem BioAssay (NCI).
≈ marks a conversion by molar mass, not a printed value. Where “and” joins values, the source holds several entries; their conditions need not be identical. Equal values may be shown once.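 Cells were grown in 96-well plates and exposed to each compound for 48 hours at five concentrations; endpoints were interpolated linearly between bracketing concentrations, or set to the highest concentration if not reached. GI50: concentration for 50% inhibition of growth. TGI: total growth inhibition.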

Key:
Experiment in all cases: NCI tumour cell line growth inhibition, 48 h
RXF-631 renal = test system: RXF-631 renal
SN12K1 renal = test system: SN12K1 renal
P388 leukemia = test system: P388 leukemia
P388/ADR leukemia = test system: P388/ADR leukemia

Row | SMILES | TGI (RXF-631 renal) | other results
1 | CSc1nc2c(nc(N)n2C2OC(COC(C)=O)C(OC(C)=O)C(OC(C)=O)C2OC(C)=O)c(=O)n1C (configuration not stated) | > 100 µM | –
2 | COC(C(=O)C(O)C(C)O)C1Cc2cc3cc(OC4CC(OC5CC(O)C(O)C(C)O5)C(O)C(C)O4)c(C)c(O)c3c(O)c2C(=O)C1OC1CC(OC2CC(O)C(OC3CC(C)(O)C(O)C(C)O3)C(C)O2)C(O)C(C)O1 (configuration not stated) | – | GI50 (SN12K1 renal): 0.0304 ng/mL (≈ 0.028 nM); TGI (SN12K1 renal): 150 ng/mL; GI50 (P388 leukemia): 0.056 ng/mL (≈ 0.0516 nM); TGI (P388 leukemia): 0.798 ng/mL (≈ 0.735 nM); GI50 (P388/ADR leukemia): 1.32 ng/mL (≈ 1.22 nM); TGI (P388/ADR leukemia): 20.4 ng/mL (≈ 18.8 nM)
3 | Cn1c(=O)c2ccc(-c3ccc(Br)cc3)nc2n(C)c1=O | > 100 µM | –
4 | Cn1c2ccccc2c(=O)c2c(O)cc3c(c21)CC(C1(C)CO1)O3 (configuration not stated) | > 33.6 µM | –
5 | C=C(C)C1CC=C(C)CC1 (configuration not stated) | > 100 µM and 1720 µM | GI50 (RXF-631 renal): > 100 µM
6 | C/C=C(/CCC1NCCC2c3ccccc3NC12)[Si](C)(C)C (configuration not stated) | 23.4 µM | –
7 | C[C@]12CCC[C@H](O)[C@H]1C[C@H](CO)CC2 | > 100 µM | –
8 | Cc1cc(=O)n2c3c(c4c(cc13)c(CO)cc(=O)n4C)OC2 | 38.9 µM | –
9 | C/C(=N\NC(=S)N1CCN(C2CCCCCC2)CC1)c1ccccn1 | – | TGI (SN12K1 renal): 1.56 µM
10 | C=C1COC(O)(C2OCOC(C3CC(=O)NC(=O)C3)C2O)C1C (configuration not stated) | 0.0249 µM and 0.0329 µM | –
11 | Cc1cc(Cl)ccc1NC(=O)CCCC(=O)C1CCC/C1=N\NC(=O)CC#N (configuration not stated) | > 100 µM | –
